Assay results published in the NIST ThermoML archive (doi:10.1021/acs.jced.9b00057).

Assay: wn = mass fraction of the nth substance listed
Conditions: 298 K, 100 kPa, Liquid; for mass density: Vibrating tube method

CCCC(=O)O [butanoic acid] + O
Conditions	mass density [kg/m3]
w1 = 6.86e-05	997.07
w1 = 0.000154	997.07
w1 = 0.000352	997.09
w1 = 0.000628	997.08
w1 = 0.000783	997.12
w1 = 0.00206	997.2
w1 = 0.0023	997.22
w1 = 0.00429	997.33
w1 = 0.00704	997.57
w1 = 0.00763	997.62
w1 = 0.0151	998.25
w1 = 0.0157	998.3
w1 = 0.0285	999.62
w1 = 0.0453	1001.89
w1 = 0.0508	1002.79
w1 = 0.0589	1004.25
w1 = 0.073	1000.5
w1 = 0.087	1001.01
w1 = 0.0974	1014.17

CCCCCCCCCC(=O)[O-].CCCCCCCCCCCCCC[P+](CCCCCC)(CCCCCC)CCCCCC [trihexyltetradecylphosphonium decanoate] + O
Conditions	viscosity [mPa·s]
Cone and plate viscometry, w2 = 0.162	96.1

Conditions	mass density [kg/m3]
w2 = 0.162	900
